{"source": "paper PMC11129181", "about": "“Histidine-Covalent Stapled Alpha-Helical Peptides Targeting hMcl-1” (Journal of Medicinal Chemistry, 2024)", "key": {"A549 NucLight Red cells": {"test_system": "A549 NucLight Red cells", "assay": "Lytic effect on A549 NucLight Red cells (IncuCyte S3)", "type": "cell-based, human", "conditions": "for lytic effect on A549 NucLight Red cells: 100 μM, images 20 min after exposure; for lytic effect on A549 cells: high concentrations, nearly immediate cell bursting after exposure, fluorescence microscopy", "text": "Amphipathic alpha-helical peptides have been reported to cause nonspecific membrane disruption events due to their constrained helical structure and amino acid composition.[2],[5],[37],[38] Lytic peptides in fact are highly efficient at binding and disrupting the negatively charged membrane of cells, as they are usually amphipathic and positively charged.[2],[5],[37],[38] Key determinants for cell permeability and the lytic effect are the combination of relatively high hydrophobic content and the number of positively charged residues in addition to the position of the staple within the alpha-helical peptide. Therefore, our design strategy included peptides with varying net charges and explored different positions of the staple within the peptide (Tables 1 and 2; Figure 2). To assess cellular permeability and to detect eventual nonspecific cell lytic effects, we tested selected stapled covalent peptides against the human nonsmall cell lung cancer (NSCLC) cell line A549 (Figure 7). To enhance live cell analysis, we used a cell line that was fluorescently labeled (A549 NucLight Red cells, Essen Bioscience), and cells were monitored for cell lysis via fluorescence microscopy using the IncuCyte S3 live-cell analysis system (Figure 7). […] Considering those data, together with the affinity for hMcl-1(172–323), alpha-helical content (Table 2), and covalent complex formation as detected by SDS gel electrophoresis, mass spectrometry, NMR, and X-ray crystallography, we selected agent 155H1, which was further tested in preliminary cell permeability and cellular efficacy studies.\nFigure 7 Lytic effect of stapled peptides on the NSCLC A549 NucLight Red cells detected via the IncuCyte S3 live-cell analysis system. The schematic illustrations depict the lytic (panel A) and nonlytic (panel B) effects of stapled agents on the cells. Representative images of cells collected 20 min after exposure to 100 μM lytic stapled compound 1 (panel A) or nonlytic stapled peptide 155H1 (panel B), along with untreated (DMSO only) cells as a control. Note: Images were taken 20 min after plates were placed inside the IncuCyte S3 to minimize condensation that can affect image quality. The scale bar denotes 100 μm.\nNonsmall cell lung cancer (NSCLC) A549 NucLight Red cells were purchased from Essen Bioscience and cultured in Ham’s F-12 nutrient mixture with GlutaMAX-1 (Gibco) supplemented with 10% FBS and 0.5 μg/mL puromycin. Cells were maintained in a humidified incubator at 37 °C in 5% CO2. These cells have nuclei-fluorescently labeled red. Anti-hMcl-1 and anti-β-tubulin antibodies were purchased from Cell Signaling Technology (#5453) and Santa Cruz Biotechnology (sc-58884), respectively. HRP-conjugated goat antimouse and antirabbit secondary antibodies were purchased from ThermoFisher Scientific."}, "hMcl-1(172–323)": {"molecular_target": "T1, hMcl-1(172–323) (Homo sapiens, UniProt Q07820)", "T1 construct": "made in house; host or cells: E. coli BL21 (DE3) gold pLysS", "T1 sequence (Q07820 172-323)": "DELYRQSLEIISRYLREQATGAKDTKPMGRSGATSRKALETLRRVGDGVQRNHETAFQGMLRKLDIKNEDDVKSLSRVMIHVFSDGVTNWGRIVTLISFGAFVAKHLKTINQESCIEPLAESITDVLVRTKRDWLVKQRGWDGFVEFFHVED", "assay": "DELFIA displacement of biotinylated-BH3 peptide from hMcl-1(172–323)", "type": "binding"}, "[1]": {"assay": "Aqueous solubility (observation)", "type": "physicochemical", "conditions": "observed during CD measurements", "text": "(§1) Furthermore, to verify that the peptides preferentially assumed a stabilized alpha-helical conformation in the stapled version compared to the linear peptide, we performed CD measurements. Typical curves for the linear peptide (138E12, blue) and a stapled peptide (155H1, red) are reported in Figure 3, while CD data for all other peptides are reported as the Supporting Information (Supporting Figures S3–S14). Using these measurements and the software BeStSel (https://bestsel.elte.hu),[34] we could calculate the percentage of alpha-helical content for each peptide (Table 2). Most stapled peptides, perhaps except compound 4 and compound 7, assumed nearly complete alpha-helical conformation in aqueous buffer (Table 2 and Supporting Figures S3–S14)."}, "[2]": {"assay": "Circular dichroism, percentage of alpha-helix (BeStSel)", "type": "physicochemical", "conditions": "25 °C", "text": "as §1\nCircular dichroism spectra were acquired on a Jasco 815 spectropolarimeter. Samples were prepared in MQ Water or in 15 mM phosphate buffer, pH 7.5. The experiments were conducted at 25 °C, using a 1 mm-path length quartz cell to record data from 190 to 260 nm in 1 nm increments. The response time was 2 s. The data were then converted to Δε(M^–1·cm^–1), and the percentage of alpha-helix was calculated using BeStSel (https://bestsel.elte.hu) software.[34]"}, "[3]": {"conditions": "DELFIA displacement assay, n = 2, 16 nM 6His-hMcl-1(172–323), protein and peptide preincubated 2 h, room temperature, 1% DMSO, read-out: IC50 (nM) hMcl-1(172–323)"}}, "note": "Like-named read-outs stand apart in the source and are kept apart here. Marks after values point to notes of the source that are not given here. Positions of bridges follow the written chain, without caps; N, C: chain ends. Non-standard residues stand in square brackets, D forms with d. Residues, ends and D or L forms follow the SMILES beside them. *: point of attachment. Benzoyl(2-OMe,5-SO2F) = COc1ccc(S(=O)(=O)F)cc1C(=O)*; Ala(1H-tetrazol-5-yl) = N[C@@H](Cc1nnn[nH]1)C(=O)O; S5 = C=CCCC[C@](C)(N)C(=O)O; Dap = NC[C@H](N)C(=O)O", "data": [{"compound": "CC[C@H](C)[C@H](NC(=O)[C@H](CNC(=O)c1cc(S(=O)(=O)F)ccc1OC)NC(C)=O)C(=O)N[C@@H](C)C(=O)N[C@@H](CCC(=O)O)C(=O)N[C@@H](CCC(N)=O)C(=O)N[C@@H](CC(C)C)C(=O)N[C@@H](CCCNC(=N)N)C(=O)N[C@@]1(C)CCC/C=C\\CCC[C@@](C)(C(=O)N[C@@H](Cc2ccccc2)C(N)=O)NC(=O)[C@H](CC(=O)O)NC(=O)CNC(=O)[C@H]([C@@H](C)CC)NC1=O", "note": "[11 (155H1)] (Ac-[Dap](Benzoyl(2-OMe,5-SO2F))IAEQLR[S5]IGD[S5]F-NH2; staple (Z) 8-12)", "values": [{"measurement": "lytic effect on A549 NucLight Red cells", "setting": "A549 NucLight Red cells", "result": "nonlytic"}]}, {"compound": "CC[C@H](C)[C@H](NC(=O)[C@H](CCCNC(=N)N)NC(=O)[C@H](CCCNC(=N)N)NC(=O)[C@H](CC(C)C)NC(=O)[C@H](CCC(N)=O)NC(=O)[C@]1(C)CCC/C=C/CCC[C@](C)(NC(C)=O)C(=O)N[C@@H](CNC(=O)c2cc(S(=O)(=O)F)ccc2OC)C(=O)N[C@@H]([C@@H](C)CC)C(=O)N[C@@H](C)C(=O)N1)C(=O)NCC(=O)N[C@@H](CC(=O)O)C(=O)N[C@@H](CCCNC(=N)N)C(=O)N[C@@H](Cc1ccccc1)C(N)=O", "note": "[compound 1] (Ac-[S5][Dap](Benzoyl(2-OMe,5-SO2F))IA[S5]QLRRIGDRF-NH2; staple (E) 1-5)", "values": [{"measurement": "lytic effect on A549 NucLight Red cells", "setting": "A549 NucLight Red cells", "result": "lytic"}, {"measurement": "lytic effect on A549 cells", "setting": "A549 NucLight Red cells", "result": "lytic effect was observed"}]}, {"compound": "CC[C@H](C)[C@H](NC(=O)[C@H](CCCNC(=N)N)NC(=O)[C@H](CCCNC(=N)N)NC(=O)[C@H](CC(C)C)NC(=O)[C@H](CCC(N)=O)NC(=O)[C@]1(C)CCC/C=C/CCC[C@](C)(NC(C)=O)C(=O)N[C@@H](CNC(=O)c2cc(S(=O)(=O)F)ccc2OC)C(=O)N[C@@H]([C@@H](C)CC)C(=O)N[C@@H](C)C(=O)N1)C(=O)NCC(=O)N[C@@H](Cc1nn[nH]n1)C(=O)N[C@@H](CCCNC(=N)N)C(=O)N[C@@H](Cc1ccccc1)C(N)=O", "note": "[compound 2] (Ac-[S5][Dap](Benzoyl(2-OMe,5-SO2F))IA[S5]QLRRIG[Ala(1H-tetrazol-5-yl)]RF-NH2; staple (E) 1-5)", "values": [{"measurement": "IC50", "setting": "hMcl-1(172–323)", "result": "633 ± 30", "unit": "nM"}, {"measurement": "lytic effect on A549 cells", "setting": "A549 NucLight Red cells", "result": "lytic effect was observed"}]}, {"compound": "CC[C@H](C)[C@H](NC(=O)[C@H](C)NC(=O)[C@H](CCCNC(=N)N)NC(=O)[C@H](CC(C)C)NC(=O)[C@H](CCC(N)=O)NC(=O)[C@]1(C)CCC/C=C/CCC[C@](C)(NC(C)=O)C(=O)N[C@@H](CNC(=O)c2cc(S(=O)(=O)F)ccc2OC)C(=O)N[C@@H]([C@@H](C)CC)C(=O)N[C@@H](C)C(=O)N1)C(=O)NCC(=O)N[C@@H](CC(=O)O)C(=O)N[C@@H](C)C(=O)N[C@@H](Cc1ccccc1)C(N)=O", "note": "[compound 4] (Ac-[S5][Dap](Benzoyl(2-OMe,5-SO2F))IA[S5]QLRAIGDAF-NH2; staple (E) 1-5)", "values": [{"measurement": "aqueous solubility", "setting": "[1]", "result": "limited aqueous solubility"}]}, {"compound": "CC[C@H](C)[C@H](NC(=O)[C@H](CNC(=O)c1cc(S(=O)(=O)F)ccc1OC)NC(C)=O)C(=O)N[C@@H](C)C(=O)N[C@@]1(C)CCC/C=C\\CCC[C@@](C)(C(=O)N[C@H](C(=O)NCC(=O)N[C@@H](CC(=O)O)C(=O)N[C@@H](C)C(=O)N[C@@H](Cc2ccccc2)C(N)=O)[C@@H](C)CC)NC(=O)[C@H](CCCNC(=N)N)NC(=O)[C@H](CC(C)C)NC(=O)[C@H](CCC(N)=O)NC1=O", "note": "[compound 7] (Ac-[Dap](Benzoyl(2-OMe,5-SO2F))IA[S5]QLR[S5]IGDAF-NH2; staple (Z) 4-8)", "values": [{"measurement": "aqueous solubility", "setting": "[1]", "result": "limited aqueous solubility"}]}, {"compound": "Ac-Dap(2MeO,5FSB)IAEQLRRIGDRF-CONH2 (Ac-[Dap](2‑methoxy‑5‑fluorosulfonylbenzoyl)IAEQLRRIGDRF-NH2) [138E12, previously reported linear Lys 234-covalent BH3 peptide with aryl-sulfonyl fluoride, reference compound]", "values": [{"measurement": "IC50", "setting": "hMcl-1(172–323); [3]", "result": "18 ± 4", "unit": "nM"}]}, {"compound": "Ac-Dap(2MeO,5FSB)IAEQLRRIGDRF-CONH2 [138E12, previously reported linear Lys 234-covalent BH3 peptide with aryl-sulfonyl fluoride, reference compound]", "values": [{"measurement": "% alpha-helix", "setting": "[2]; CD spectra measured both in water and in 15 mM phosphate buffer pH 7.5, BeStSel", "result": "48.3 ^b %"}]}, {"compound": "Ac-Dap(2MeO,5FSB)IXEQLXRIGDRF-CONH2 (sidechain bridge or staple) ({Ac-Dap(2MeO,5FSB)}-I[S5]EQL[S5]RIGDRF-NH2; staple 2-6) [compound 10, stapled covalent BH3 peptide, staple at positions 4 and 8]", "values": [{"measurement": "IC50", "setting": "hMcl-1(172–323); [3]", "result": "174 ± 1", "unit": "nM"}, {"measurement": "% alpha-helix", "setting": "[2]; CD, 190–260 nm, MQ water or 15 mM phosphate buffer pH 7.5, calculated using BeStSel", "result": 100, "unit": "%"}]}]}
